Source: ChEMBL document CHEMBL4630908 (2021)
Calls of active or inactive are those of the source. The rule behind the calls is not given here.

Columns and labels:
[1] = target: 5-hydroxytryptamine receptor 1D (Homo sapiens, UniProt P28221); experiment: GPCRScan assay: inhibition of 5-HT1D; set-up: radioligand conc. used [nm] 1.0 – 2.0, parental cells HEKT
[2] = target: T1, Bromodomain-containing protein 2 (Homo sapiens, UniProt P25440); experiment: BRD2 BD1 Bromoscan (DiscoverX)
[3] = target: T1, Bromodomain-containing protein 2; experiment: BRD2 BD2 Bromoscan (DiscoverX)
[4] = target: T2, Bromodomain-containing protein 3 (Homo sapiens, UniProt Q15059); experiment: BRD3 BD1 Bromoscan (DiscoverX)
T2 sequence (Q15059 whole entry): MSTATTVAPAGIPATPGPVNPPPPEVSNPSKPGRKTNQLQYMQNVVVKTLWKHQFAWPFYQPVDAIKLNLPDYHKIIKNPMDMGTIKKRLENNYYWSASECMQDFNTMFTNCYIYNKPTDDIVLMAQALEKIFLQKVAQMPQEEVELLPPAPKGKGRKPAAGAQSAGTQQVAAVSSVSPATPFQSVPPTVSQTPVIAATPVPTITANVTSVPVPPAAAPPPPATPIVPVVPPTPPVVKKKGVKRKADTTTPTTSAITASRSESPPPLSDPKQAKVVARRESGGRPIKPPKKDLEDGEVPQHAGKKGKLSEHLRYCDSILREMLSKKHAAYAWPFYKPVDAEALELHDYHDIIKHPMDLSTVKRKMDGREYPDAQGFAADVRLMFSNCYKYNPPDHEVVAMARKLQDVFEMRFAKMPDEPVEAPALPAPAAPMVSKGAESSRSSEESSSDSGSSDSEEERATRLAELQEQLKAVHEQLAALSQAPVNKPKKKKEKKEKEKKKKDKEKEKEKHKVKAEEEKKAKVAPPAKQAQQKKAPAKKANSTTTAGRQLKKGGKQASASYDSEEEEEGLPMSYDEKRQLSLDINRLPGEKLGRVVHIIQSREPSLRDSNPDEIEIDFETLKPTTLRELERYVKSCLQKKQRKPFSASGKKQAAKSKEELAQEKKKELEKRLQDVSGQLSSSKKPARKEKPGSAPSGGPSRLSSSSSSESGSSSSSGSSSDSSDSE

[5] = target: T2, Bromodomain-containing protein 3; experiment: BRD3 BD2 Bromoscan (DiscoverX)
[6] = target: T3, Bromodomain testis-specific protein (Homo sapiens, UniProt Q58F21); experiment: BRDT BD1 Bromoscan (DiscoverX)
[7] = target: T3, Bromodomain testis-specific protein; experiment: BRDT BD2 Bromoscan (DiscoverX)
[8] = target: C-C motif chemokine 2 (Homo sapiens, UniProt P13500); experiment: In vitro inhibition of MCP-1 in Lipopolysaccharide-stimulated human whole blood; assay type: tissue-based
C-C motif chemokine 2, sequence (P13500 whole entry, the tested form may be a part): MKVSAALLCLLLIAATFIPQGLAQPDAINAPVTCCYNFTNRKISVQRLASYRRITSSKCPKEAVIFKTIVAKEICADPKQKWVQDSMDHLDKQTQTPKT

[9] = target: ATPase family AAA domain-containing protein 2 (Homo sapiens, UniProt Q6PL18); experiment: ATAD2A DiscoverX BROMOscan
[10] = target: Bromodomain adjacent to zinc finger domain protein 2A (Homo sapiens, UniProt Q9UIF9); experiment: BAZ2A DiscoverX BROMOscan
[11] = target: T1, Bromodomain-containing protein 2; experiment: BRD2(1) DiscoverX BROMOscan
[12] = target: T2, Bromodomain-containing protein 3; experiment: BRD3(1,2) DiscoverX BROMOscan
[13] = target: Bromodomain-containing protein 7 (Homo sapiens, UniProt Q9NPI1); experiment: BRD7 DiscoverX BROMOscan
[14] = target: Bromodomain-containing protein 8 (Homo sapiens, UniProt Q9H0E9); experiment: BRD8(1) DiscoverX BROMOscan
[15] = target: T3, Bromodomain testis-specific protein; experiment: BRDT(1) DiscoverX BROMOscan
[16] = target: T3, Bromodomain testis-specific protein; experiment: BRDT(1,2) DiscoverX BROMOscan
[17] = target: CREB-binding protein (Homo sapiens, UniProt Q92793); experiment: CREBBP DiscoverX BROMOscan
[18] = target: Histone acetyltransferase p300 (Homo sapiens, UniProt Q09472); experiment: EP300 DiscoverX BROMOscan
[19] = target: Protein polybromo-1 (Homo sapiens, UniProt Q86U86); experiment: PBRM1(2) DiscoverX BROMOscan
[20] = target: Transcription intermediary factor 1-alpha (Homo sapiens, UniProt O15164); experiment: TRIM24(PHD,Bromo.) DiscoverX BROMOscan
[21] = target: Bromodomain and WD repeat-containing protein 1 (Homo sapiens, UniProt Q9NSI6); experiment: WDR9(2) DiscoverX BROMOscan
[22] = target: 3',5'-cyclic-AMP phosphodiesterase 4B (Homo sapiens, UniProt Q07343); experiment: (§1) Cross screening panel
[23] = target: 5-hydroxytryptamine receptor 3A (Homo sapiens, UniProt P46098); experiment: as §1
5-hydroxytryptamine receptor 3A, sequence (P46098 whole entry): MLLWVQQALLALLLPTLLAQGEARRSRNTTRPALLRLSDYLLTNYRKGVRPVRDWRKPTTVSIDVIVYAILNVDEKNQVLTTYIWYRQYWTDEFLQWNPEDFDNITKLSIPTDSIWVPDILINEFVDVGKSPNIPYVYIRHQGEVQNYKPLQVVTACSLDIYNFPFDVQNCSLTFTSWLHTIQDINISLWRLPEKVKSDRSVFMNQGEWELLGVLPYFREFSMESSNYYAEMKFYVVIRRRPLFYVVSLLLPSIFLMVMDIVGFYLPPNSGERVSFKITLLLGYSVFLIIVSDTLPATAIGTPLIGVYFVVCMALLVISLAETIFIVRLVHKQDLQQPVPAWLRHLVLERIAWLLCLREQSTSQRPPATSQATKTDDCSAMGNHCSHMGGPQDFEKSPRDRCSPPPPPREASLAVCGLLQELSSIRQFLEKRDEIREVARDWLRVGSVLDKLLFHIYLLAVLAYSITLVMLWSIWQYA

[24] = target: Acetylcholine receptor subunit alpha (Homo sapiens, UniProt P02708); experiment: as §1
Acetylcholine receptor subunit alpha, sequence (P02708 whole entry): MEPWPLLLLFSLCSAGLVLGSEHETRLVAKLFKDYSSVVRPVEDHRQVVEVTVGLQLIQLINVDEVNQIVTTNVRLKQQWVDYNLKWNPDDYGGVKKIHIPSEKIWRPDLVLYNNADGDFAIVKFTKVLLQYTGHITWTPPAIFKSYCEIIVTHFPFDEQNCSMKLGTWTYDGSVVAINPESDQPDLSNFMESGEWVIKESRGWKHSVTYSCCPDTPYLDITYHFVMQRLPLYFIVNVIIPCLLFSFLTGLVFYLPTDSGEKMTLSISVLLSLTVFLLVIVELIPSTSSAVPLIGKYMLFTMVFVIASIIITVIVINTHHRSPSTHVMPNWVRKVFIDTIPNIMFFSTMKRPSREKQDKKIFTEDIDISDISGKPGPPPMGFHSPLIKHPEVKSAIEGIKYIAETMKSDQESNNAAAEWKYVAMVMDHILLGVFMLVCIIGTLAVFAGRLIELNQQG

[25] = target: Acetylcholinesterase (Homo sapiens, UniProt P22303); experiment: as §1
[26] = target: Adenosine receptor A2a (Homo sapiens, UniProt P29274); experiment: as §1
[27] = target: Alpha-2C adrenergic receptor (Homo sapiens, UniProt P18825); experiment: as §1
[28] = target: Amine oxidase [flavin-containing] A (Homo sapiens, UniProt P21397); experiment: as §1
[29] = target: Aryl hydrocarbon receptor (Homo sapiens, UniProt P35869); experiment: as §1
[30] = target: Aurora kinase B (Homo sapiens, UniProt Q96GD4); experiment: as §1
[31] = target: D(2) dopamine receptor (Homo sapiens, UniProt P14416); experiment: as §1
D(2) dopamine receptor, sequence (P14416 whole entry): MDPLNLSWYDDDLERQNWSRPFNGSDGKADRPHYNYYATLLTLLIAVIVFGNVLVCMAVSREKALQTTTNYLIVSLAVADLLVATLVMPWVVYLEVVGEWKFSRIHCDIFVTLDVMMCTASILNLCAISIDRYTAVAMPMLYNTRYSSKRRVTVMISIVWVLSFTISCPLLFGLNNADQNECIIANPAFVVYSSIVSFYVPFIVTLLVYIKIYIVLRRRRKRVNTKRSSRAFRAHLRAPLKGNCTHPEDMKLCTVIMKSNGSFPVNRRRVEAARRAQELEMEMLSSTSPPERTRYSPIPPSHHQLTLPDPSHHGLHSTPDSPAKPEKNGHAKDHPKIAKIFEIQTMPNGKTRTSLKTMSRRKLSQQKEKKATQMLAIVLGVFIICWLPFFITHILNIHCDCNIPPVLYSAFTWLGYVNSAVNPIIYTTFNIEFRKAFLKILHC

[32] = target: Glutamate receptor ionotropic, NMDA 2B (Homo sapiens, UniProt Q13224); experiment: as §1
[33] = target: Histamine H1 receptor (Homo sapiens, UniProt P35367); experiment: as §1
[34] = target: T4, Mu-type opioid receptor (Homo sapiens, UniProt P35372); experiment: as §1
T4 sequence (P35372 whole entry): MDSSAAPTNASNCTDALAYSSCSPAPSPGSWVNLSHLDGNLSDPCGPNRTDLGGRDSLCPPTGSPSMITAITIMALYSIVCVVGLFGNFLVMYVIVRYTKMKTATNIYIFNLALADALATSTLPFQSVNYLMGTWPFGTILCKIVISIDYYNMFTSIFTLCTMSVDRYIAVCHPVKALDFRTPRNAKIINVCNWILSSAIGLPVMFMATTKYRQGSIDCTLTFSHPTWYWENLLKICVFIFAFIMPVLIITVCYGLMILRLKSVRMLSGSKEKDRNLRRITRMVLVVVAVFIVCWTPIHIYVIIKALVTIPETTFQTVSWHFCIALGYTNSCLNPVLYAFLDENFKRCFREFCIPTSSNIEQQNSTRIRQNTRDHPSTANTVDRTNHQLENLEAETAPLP

[35] = target: Muscarinic acetylcholine receptor M1 (Homo sapiens, UniProt P11229); experiment: as §1
Muscarinic acetylcholine receptor M1, sequence (P11229 whole entry): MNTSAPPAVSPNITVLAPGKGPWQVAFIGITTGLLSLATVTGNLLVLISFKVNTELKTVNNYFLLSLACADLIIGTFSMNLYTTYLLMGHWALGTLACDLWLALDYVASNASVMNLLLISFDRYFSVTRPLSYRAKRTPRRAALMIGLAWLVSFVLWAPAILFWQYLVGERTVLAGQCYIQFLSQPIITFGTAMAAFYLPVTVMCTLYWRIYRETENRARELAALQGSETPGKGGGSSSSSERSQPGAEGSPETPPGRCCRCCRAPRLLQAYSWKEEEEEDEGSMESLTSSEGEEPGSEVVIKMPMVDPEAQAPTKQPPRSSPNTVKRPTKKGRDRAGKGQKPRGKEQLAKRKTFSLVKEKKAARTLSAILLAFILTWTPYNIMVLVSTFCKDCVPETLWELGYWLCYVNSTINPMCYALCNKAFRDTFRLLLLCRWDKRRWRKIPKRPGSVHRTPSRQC

[36] = target: Nuclear receptor subfamily 1 group I member 2 (Homo sapiens, UniProt O75469); experiment: as §1
[37] = target: Phosphatidylinositol 4,5-bisphosphate 3-kinase catalytic subunit gamma isoform (Homo sapiens, UniProt P48736); experiment: as §1
[38] = target: Potassium voltage-gated channel subfamily A member 5 (Homo sapiens, UniProt P22460); experiment: as §1
[39] = target: Prostaglandin G/H synthase 2 (Homo sapiens, UniProt P35354); experiment: as §1
[40] = target: Sodium-dependent serotonin transporter (Homo sapiens, UniProt P31645); experiment: as §1
[41] = target: Substance-P receptor (Homo sapiens, UniProt P25103); experiment: as §1
[42] = target: Tyrosine-protein kinase Lck (Homo sapiens, UniProt P06239); experiment: as §1
Tyrosine-protein kinase Lck, sequence (P06239 whole entry): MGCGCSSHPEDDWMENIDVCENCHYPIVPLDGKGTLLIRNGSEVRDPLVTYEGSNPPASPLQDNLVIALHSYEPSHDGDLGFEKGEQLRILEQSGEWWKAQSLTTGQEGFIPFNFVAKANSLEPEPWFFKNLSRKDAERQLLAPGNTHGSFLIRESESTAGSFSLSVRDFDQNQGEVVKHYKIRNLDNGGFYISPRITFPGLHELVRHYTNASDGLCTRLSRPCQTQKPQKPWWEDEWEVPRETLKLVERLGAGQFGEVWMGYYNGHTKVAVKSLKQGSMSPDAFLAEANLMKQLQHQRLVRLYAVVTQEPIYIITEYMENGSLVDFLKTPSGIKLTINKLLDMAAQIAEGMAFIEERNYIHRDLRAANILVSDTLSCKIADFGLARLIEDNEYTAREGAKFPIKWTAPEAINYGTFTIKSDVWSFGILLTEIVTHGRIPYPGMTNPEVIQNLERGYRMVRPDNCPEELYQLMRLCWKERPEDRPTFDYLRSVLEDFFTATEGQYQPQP

[43] = target: Vasopressin V1a receptor (Homo sapiens, UniProt P37288); experiment: as §1
[44] = target: Voltage-dependent L-type calcium channel subunit alpha-1C (Homo sapiens, UniProt Q13936); experiment: as §1
[45] = target: cGMP-inhibited 3',5'-cyclic phosphodiesterase 3A (Homo sapiens, UniProt Q14432); experiment: as §1
[46] = target: GABA-A receptor; anion channel; experiment: as §1; assay type: protein-complex assay
[47] = target: 5-hydroxytryptamine receptor 1B (Homo sapiens, UniProt P28222); conditions: Compound concentration 10.0 uM
[48] = target: 5-hydroxytryptamine receptor 2C (Homo sapiens) (UniProt P28335); conditions: Compound concentration 10.0 uM
[49] = target: 5-hydroxytryptamine receptor 3A (Homo sapiens) (UniProt P46098); conditions: Compound concentration 10.0 uM
5-hydroxytryptamine receptor 3A (Homo sapiens), sequence (P46098 whole entry): as the sequence (P46098 whole entry) above

[50] = target: 5-hydroxytryptamine receptor 5A (Homo sapiens) (UniProt P47898); conditions: Compound concentration 10.0 uM
[51] = target: Sodium-dependent noradrenaline transporter (Homo sapiens) (UniProt P23975); conditions: Compound concentration 10.0 uM
[52] = target: Sodium-dependent dopamine transporter (Homo sapiens) (UniProt Q01959); conditions: Compound concentration 10.0 uM
[53] = target: T4, Mu-type opioid receptor; conditions: Compound concentration 10.0 uM
[54] = target: Kappa-type opioid receptor (Homo sapiens, UniProt P41145); conditions: Compound concentration 10.0 uM
[55] = target: Histamine H4 receptor (Homo sapiens) (UniProt Q9H3N8); conditions: Compound concentration 10.0 uM
[56] = target: Alpha-2C adrenergic receptor (Homo sapiens) (UniProt P18825); conditions: Compound concentration 10.0 uM
[57] = target: Muscarinic acetylcholine receptor M1 (Homo sapiens) (UniProt P11229); conditions: Compound concentration 10.0 uM
Muscarinic acetylcholine receptor M1 (Homo sapiens), sequence (P11229 whole entry): as the sequence (P11229 whole entry) above

[58] = target: Muscarinic acetylcholine receptor M2 (Homo sapiens) (UniProt P08172); conditions: Compound concentration 10.0 uM

T1 sequence (P25440 whole entry): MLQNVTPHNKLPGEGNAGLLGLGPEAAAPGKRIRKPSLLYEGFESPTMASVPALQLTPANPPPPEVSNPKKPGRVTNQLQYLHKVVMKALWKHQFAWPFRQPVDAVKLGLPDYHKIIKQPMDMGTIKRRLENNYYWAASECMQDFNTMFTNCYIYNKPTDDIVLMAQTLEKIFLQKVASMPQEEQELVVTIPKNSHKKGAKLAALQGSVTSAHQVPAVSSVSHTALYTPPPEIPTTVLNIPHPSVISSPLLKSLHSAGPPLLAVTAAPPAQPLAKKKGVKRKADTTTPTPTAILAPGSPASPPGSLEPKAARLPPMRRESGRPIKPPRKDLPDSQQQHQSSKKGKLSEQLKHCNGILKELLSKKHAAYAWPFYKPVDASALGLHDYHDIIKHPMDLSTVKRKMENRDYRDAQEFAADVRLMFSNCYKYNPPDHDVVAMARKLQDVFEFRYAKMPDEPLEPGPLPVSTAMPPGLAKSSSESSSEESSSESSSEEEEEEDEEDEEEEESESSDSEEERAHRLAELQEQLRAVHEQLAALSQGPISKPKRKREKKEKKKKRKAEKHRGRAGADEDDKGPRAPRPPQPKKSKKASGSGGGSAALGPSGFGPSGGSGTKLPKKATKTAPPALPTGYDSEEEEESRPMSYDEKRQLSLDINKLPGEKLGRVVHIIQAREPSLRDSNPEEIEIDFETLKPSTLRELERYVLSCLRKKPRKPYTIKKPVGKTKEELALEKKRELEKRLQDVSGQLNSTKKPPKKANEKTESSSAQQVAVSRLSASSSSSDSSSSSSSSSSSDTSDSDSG
5-hydroxytryptamine receptor 1D, sequence (P28221 whole entry): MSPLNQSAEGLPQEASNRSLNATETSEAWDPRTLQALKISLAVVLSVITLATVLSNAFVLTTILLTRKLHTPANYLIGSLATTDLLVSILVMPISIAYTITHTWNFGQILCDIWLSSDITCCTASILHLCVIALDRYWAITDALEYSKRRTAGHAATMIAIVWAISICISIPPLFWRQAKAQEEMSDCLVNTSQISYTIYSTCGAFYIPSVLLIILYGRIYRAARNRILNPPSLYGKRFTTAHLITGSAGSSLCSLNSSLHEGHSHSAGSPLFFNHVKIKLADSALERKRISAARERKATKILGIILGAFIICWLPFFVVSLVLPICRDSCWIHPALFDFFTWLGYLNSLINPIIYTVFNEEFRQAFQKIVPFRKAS

## CC(=O)Nc1c(F)cc(C(=O)N[C@H]2CC[C@H](O)CC2)cc1O[C@@H](C)c1ccccc1 [GSK046]
[1]
  Ki: 3.44 µM
[2]
  Kd: 1.62 µM (not active)
[3]
  Kd: 35 nM (active)
[4]
  Kd: 2.08 µM (not active)
[5]
  Kd: 32 nM (active)
[6]
  Kd: 2.45 µM (not active)
[7]
  Kd: 15 nM (active)
[8]
  IC50: 316 nM (active)
[9]
  Kd: 30 µM
[10]
  Kd: 30 µM
[11]
  Kd: 1620 nM
[12]
  Kd: 47 nM
[13]
  Kd: 30 µM
[14]
  Kd: 30 µM
[15]
  Kd: 2450 nM
[16]
  Kd: 36 nM
[17]
  Kd: 30 µM
[18]
  Kd: 30 µM
[19]
  Kd: 30 µM
[20]
  Kd: 30 µM
[21]
  Kd: 30 µM
[22]
  IC50: > 100 µM
[23]
  EC50: > 50.1 µM
  IC50: > 50.1 µM
[24]
  EC50: > 50.1 µM
  IC50: 25.1 µM
[25]
  IC50: 7.94 µM
[26]
  EC50: 31.6 µM
[27]
  EC50: > 100 µM
[28]
  IC50: > 100 µM
[29]
  EC50: > 100 µM
[30]
  IC50: > 31.6 µM
[31]
  EC50: > 100 µM
  Ki: > 100 µM
[32]
  IC50: > 50.1 µM
[33]
  IC50: > 25.1 µM
[34]
  EC50: > 100 µM
[35]
  EC50: > 50.1 µM
  IC50: > 50.1 µM
[36]
  EC50: > 50.1 µM
[37]
  IC50: > 31.6 µM
[38]
  IC50: > 50.1 µM
[39]
  IC50: > 100 µM
[40]
  IC50: > 100 µM
[41]
  IC50: > 25.1 µM
[42]
  IC50: > 31.6 µM
[43]
  IC50: > 39.8 µM
[44]
  IC50: 100 µM
[45]
  IC50: > 100 µM
[46]
  pEC50: < 4
[47]
  inhibition: 11.6%
[48]
  inhibition: 14%
[49]
  inhibition: 3.77%
[50]
  inhibition: -8.96%
[51]
  inhibition: -0.92%
[52]
  inhibition: 3.3%
[53]
  inhibition: 20.4%
[54]
  inhibition: 9.38%
[55]
  inhibition: 20.1%
[56]
  inhibition: -0.86%
[57]
  inhibition: -4.64%
[58]
  inhibition: 18.1%
